Tests used:
Experiment in all cases: relative viability (nuclei count vs DMSO), 5 days (fraction); higher = more cells survive
[1] = tested on: EMC-BAC-2
Summary of the method: (§1)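 Lung cancer cell lines, seeded in 1536-well plates, were treated the following day by pin tool with a single drug or with five library-drug doses (not always all listed) in √10 steps on top of a fixed anchor-drug dose. Cells were fixed and nuclei stained in one step after 5 days, and nuclei were counted. Relative viability is the nuclei count for treated wells divided by that for vehicle wells, reported as medians of duplicate plates.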

[2] = tested on: COR-L23
Summary of the method: as §1

[3] = tested on: NCI-H1792
Summary of the method: as §1

[4] = tested on: A-427
Summary of the method: as §1

[5] = tested on: NCI-H1993
Summary of the method: as §1

[6] = tested on: SK-LU-1
Summary of the method: as §1

[7] = tested on: NCI-H2228
Summary of the method: as §1

[8] = tested on: LXF-289
Summary of the method: as §1

[9] = tested on: NCI-H1944
Summary of the method: as §1

[10] = tested on: ABC-1
Summary of the method: as §1

[11] = tested on: LK-2
Summary of the method: as §1

[12] = tested on: NCI-H2009
Summary of the method: as §1

[13] = tested on: SK-MES-1
Summary of the method: as §1

[14] = tested on: NCI-H1793
Summary of the method: as §1

[15] = tested on: HARA
Summary of the method: as §1

[16] = tested on: NCI-H596
Summary of the method: as §1

[17] = tested on: PC-3 [JPC-3]
Summary of the method: as §1

[18] = tested on: SW 1573
Summary of the method: as §1

[19] = tested on: NCI-H727
Summary of the method: as §1

[20] = tested on: LU99A
Summary of the method: as §1

[21] = tested on: HOP-62
Summary of the method: as §1

[22] = tested on: NCI-H3122
Summary of the method: as §1

[23] = tested on: NCI-H2170
Summary of the method: as §1

SMILES: C[C@@H]1CN(CC(=O)Nc2ccc3c(c2)Cc2cccc(-c4cc(=O)cc(N5CCOCC5)o4)c2S3)C[C@H](C)O1 + CS(=O)(=O)N1CCN(Cc2cc3nc(-c4cccc5[nH]ncc45)nc(N4CCOCC4)c3s2)CC1 [Pictilisib] (partner 1 µM)
- relative viability ([1]; first compound 0.04 µM): 0.559
- relative viability ([1]; first compound 0.1265 µM): 0.528
- relative viability ([1]; first compound 0.4 µM): 0.429
- relative viability ([1]; first compound 4 µM): 0.514
- relative viability ([2]; first compound 0.04 µM): 0.854
- relative viability ([2]; first compound 0.1265 µM): 0.785
- relative viability ([2]; first compound 0.4 µM): 0.745
- relative viability ([2]; first compound 4 µM): 0.755
- relative viability ([3]; first compound 0.04 µM): 0.242
- relative viability ([3]; first compound 0.1265 µM): 0.264
- relative viability ([3]; first compound 0.4 µM): 0.274
- relative viability ([3]; first compound 4 µM): 0.287
- relative viability ([4]; first compound 0.04 µM): 0.581
- relative viability ([4]; first compound 0.1265 µM): 0.674
- relative viability ([4]; first compound 0.4 µM): 0.679
- relative viability ([4]; first compound 4 µM): 0.675
- relative viability ([5]; first compound 0.04 µM): 0.76
- relative viability ([5]; first compound 0.1265 µM): 0.927
- relative viability ([5]; first compound 0.4 µM): 0.994
- relative viability ([5]; first compound 4 µM): 0.912
- relative viability ([6]; first compound 0.04 µM): 0.657
- relative viability ([6]; first compound 0.1265 µM): 0.594
- relative viability ([6]; first compound 0.4 µM): 0.702
- relative viability ([6]; first compound 4 µM): 0.484
- relative viability ([7]; first compound 0.04 µM): 0.355
- relative viability ([7]; first compound 0.1265 µM): 0.256
- relative viability ([7]; first compound 0.4 µM): 0.372
- relative viability ([7]; first compound 4 µM): 0.472
- relative viability ([8]; first compound 0.04 µM): 0.852
- relative viability ([8]; first compound 0.1265 µM): 0.789
- relative viability ([8]; first compound 0.4 µM): 0.78
- relative viability ([8]; first compound 4 µM): 0.792
- relative viability ([9]; first compound 0.1265 µM): 0.328
- relative viability ([9]; first compound 0.4 µM): 0.336
- relative viability ([9]; first compound 4 µM): 0.33
- relative viability ([10]; first compound 0.1265 µM): 0.69
- relative viability ([10]; first compound 0.4 µM): 0.636
- relative viability ([10]; first compound 4 µM): 0.854
- relative viability ([11]; first compound 0.1265 µM): 0.634
- relative viability ([11]; first compound 0.4 µM): 0.607
- relative viability ([11]; first compound 4 µM): 0.667
- relative viability ([12]; first compound 0.04 µM): 0.909
- relative viability ([12]; first compound 0.1265 µM): 0.84
- relative viability ([12]; first compound 0.4 µM): 0.816
- relative viability ([12]; first compound 4 µM): 0.588
- relative viability ([13]; first compound 0.04 µM): 0.381
- relative viability ([13]; first compound 0.1265 µM): 0.377
- relative viability ([13]; first compound 0.4 µM): 0.356
- relative viability ([13]; first compound 4 µM): 0.355
- relative viability ([14]; first compound 0.04 µM): 0.374
- relative viability ([14]; first compound 0.1265 µM): 0.297
- relative viability ([14]; first compound 0.4 µM): 0.346
- relative viability ([14]; first compound 4 µM): 0.335
- relative viability ([15]; first compound 0.04 µM): 0.383
- relative viability ([15]; first compound 0.1265 µM): 0.37
- relative viability ([15]; first compound 0.4 µM): 0.226
- relative viability ([15]; first compound 4 µM): 0.372
- relative viability ([16]; first compound 0.04 µM): 0.386
- relative viability ([16]; first compound 0.1265 µM): 0.417
- relative viability ([16]; first compound 0.4 µM): 0.404
- relative viability ([16]; first compound 4 µM): 0.41
- relative viability ([17]; first compound 0.04 µM): 0.714
- relative viability ([17]; first compound 0.1265 µM): 0.724
- relative viability ([17]; first compound 0.4 µM): 0.801
- relative viability ([17]; first compound 4 µM): 0.669
- relative viability ([18]; first compound 0.04 µM): 0.536
- relative viability ([18]; first compound 0.1265 µM): 0.531
- relative viability ([18]; first compound 0.4 µM): 0.489
- relative viability ([18]; first compound 4 µM): 0.486
- relative viability ([19]; first compound 0.04 µM): 0.291
- relative viability ([19]; first compound 0.1265 µM): 0.421
- relative viability ([19]; first compound 0.4 µM): 0.252
- relative viability ([19]; first compound 4 µM): 0.385
- relative viability ([20]; first compound 0.04 µM): 0.313
- relative viability ([20]; first compound 0.1265 µM): 0.382
- relative viability ([20]; first compound 0.4 µM): 0.349
- relative viability ([20]; first compound 4 µM): 0.378
- relative viability ([21]; first compound 0.04 µM): 0.359
- relative viability ([21]; first compound 0.1265 µM): 0.626
- relative viability ([21]; first compound 0.4 µM): 0.753
- relative viability ([21]; first compound 4 µM): 0.605
- relative viability ([22]; first compound 0.04 µM): 0.656
- relative viability ([22]; first compound 0.1265 µM): 0.532
- relative viability ([22]; first compound 0.4 µM): 0.513
- relative viability ([22]; first compound 4 µM): 0.472
- relative viability ([23]; first compound 0.1265 µM): 0.343
- relative viability ([23]; first compound 0.4 µM): 0.274
- relative viability ([23]; first compound 4 µM): 0.339
